This test concerns the target Mitogen-activated protein kinase kinase kinase kinase 1 (Homo sapiens, UniProt Q92918). The experiment in a line: TBHPK1 IC50 Assay: Ten nanoliters of test compounds dissolved in DMSO at various concentrations were dispensed into a 384-well ProxiPlate (PerkinElmer #6008289). Five microliters of a solution of recombinant HPK1 diluted in HPK1 kinase assay buffer (50 mM BES [N,N-Bis(2-hydroxyethyl)-2-aminoethanesulfonic acid], pH 7.0; 10 mM magnesium chloride; 0.01% Triton X-100; 1 mM dithiothreitol; 0.01% bovine serum albumin; 0.1 mM sodium orthovanadate) was added to the compound-containing plate and was incubated for 15 minutes at 25° C. Five microliters of a mixture of ATP (Sigma-Aldrich #A6559) and peptide substrate STK S1 (Cisbio #61ST1BLC) diluted in HPK1 kinase assay buffer was then added to start the reaction. Final concentrations were 0.15 nM for HPK1, 10 μM for ATP, and 1 μM for the STK S1 peptide substrate. The reaction mixture was incubated at 25° C. for 3 hours and was stopped with the addition of 10 μl of an EDTA (Ethylenediaminetetraacetic acid)-containing detection buffer (Cisbio #62SDBRDF) supplemented with Europium cryptate-labeled anti-phospho-serine/threonine antibodies (Cisbio #62ST1PEJ) and XL665-labeled streptavidin (Cisbio #610SAXLG). The mixture was incubated for 16 hours at room temperature and peptide phosphorylation was measured by time-resolved fluorescence energy transfer (665 nm/620 nm) on an Envision plate reader (PerkinElmer).

Data on 2 compounds can be found in ChEMBL document CHEMBL5728881, “Substituted 6-azabenzimidazole compounds” (2021).

pIC50: −log10 of the molar value.

Sequence of Mitogen-activated protein kinase kinase kinase kinase 1 (Q92918 whole entry): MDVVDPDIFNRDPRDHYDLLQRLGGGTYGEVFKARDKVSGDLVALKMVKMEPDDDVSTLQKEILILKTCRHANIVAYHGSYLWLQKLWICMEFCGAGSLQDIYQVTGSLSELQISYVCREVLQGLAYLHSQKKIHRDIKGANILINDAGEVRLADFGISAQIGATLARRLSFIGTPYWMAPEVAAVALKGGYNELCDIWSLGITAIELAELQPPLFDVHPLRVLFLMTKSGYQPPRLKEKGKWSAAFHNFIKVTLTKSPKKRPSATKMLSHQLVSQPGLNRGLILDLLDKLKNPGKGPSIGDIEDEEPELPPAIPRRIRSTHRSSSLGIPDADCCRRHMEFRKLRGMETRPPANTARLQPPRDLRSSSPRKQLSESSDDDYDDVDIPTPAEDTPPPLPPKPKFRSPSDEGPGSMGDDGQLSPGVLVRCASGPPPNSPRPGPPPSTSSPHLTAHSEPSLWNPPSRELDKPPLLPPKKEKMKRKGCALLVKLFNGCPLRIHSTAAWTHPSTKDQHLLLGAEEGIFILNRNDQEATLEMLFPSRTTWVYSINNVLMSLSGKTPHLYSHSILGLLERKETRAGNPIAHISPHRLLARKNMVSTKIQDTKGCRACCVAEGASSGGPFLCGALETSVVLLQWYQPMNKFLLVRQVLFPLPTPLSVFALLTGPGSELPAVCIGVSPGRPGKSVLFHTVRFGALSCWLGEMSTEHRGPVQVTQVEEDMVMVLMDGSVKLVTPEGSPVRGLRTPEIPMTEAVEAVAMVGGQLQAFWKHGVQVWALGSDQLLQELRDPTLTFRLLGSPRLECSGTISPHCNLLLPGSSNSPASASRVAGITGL

Turning to `CNC(=O)c1cc(Nc2nc(-c3ccc4c(c3)N([C@H]3C[C@@H](N5CC[C@H](C(F)F)C5)C3)C(=O)C4(C)C)cc3ncn(C(C)C)c23)ccc1C`, the negative-log IC50 (pIC50) – broadly, the negative decadic logarithm of the IC50, by convention in mol/L – is 9.70.

`CC(C)n1cnc2cc(-c3cnc4c(c3)N([C@H]3C[C@](C)(N5CCC6CC6C5)C3)C(=O)C4(C)C)nc(Nc3cc(C(=O)NC4(CF)CC4)c(Cl)c(F)c3F)c21` (some centres not stated): the negative logarithm of the IC50 (pIC50) is 10.05.
